# Data published in patent publication US20220401514A1, “ANTIMICROBIAL, BACTERIOPHAGE-DERIVED POLYPEPTIDES AND THEIR USE AGAINST GRAM-NEGATIVE AND ACID-FAST BACTERIA” (CONTRAFECT CORPORATION, priority 2019, published 2022).
# Ends that are not written are not given here.
# Assays:
# P. aeruginosa (CFS 1292) = test: microbe, parasite or virus in culture; type: cell-based, Pseudomonas aeruginosa
# [1] = test system: carbapenem-resistant P. aeruginosa clinical isolate CFS-1292; test: MIC by modified CLSI broth microdilution against P. aeruginosa CFS-1292 (CAA, CAA + human serum); type: cell-based, Pseudomonas aeruginosa; conditions: for MIC (μg/mL) against CFS-1292 in 100% CAA (1st run/2nd run): 1st run or single value
# Pseudomonas aeruginosa = test: microbe, parasite or virus in culture; type: cell-based; conditions: P. aeruginosa isolates (n per peptide in table)
# Enterobacter cloacae = test: microbe, parasite or virus in culture; type: cell-based; conditions: for MIC: Enterobacter cloacae ATCC 13047, CAA supplemented with human serum
# Method: (§1) Determination of Minimal Inhibitory Concentrations (MIC).
# (§2) Additional MIC testing was performed for several peptides against the ESKAPE pathogens Escherichia coli, Enterobacter cloacae, Klebsiella pneumoniae, and Acinetobacter baumannii, in CAA supplemented with human serum (Table D).
# Escherichia coli = test: microbe, parasite or virus in culture; type: cell-based; conditions: for MIC: Escherichia coli ATCC 25922, CAA supplemented with human serum
# Method: as §1, §2
# Klebsiella pneumoniae = type: cell-based; conditions: for MIC50 / MIC100 / MIC Range: K. pneumoniae isolates (n per peptide in table); for MIC: Klebsiella pneumoniae HM-44, CAA supplemented with human serum
# Method: as §1, §2
# Acinetobacter baumannii = test: microbe, parasite or virus in culture; type: cell-based; conditions: for MIC50 / MIC100 / MIC Range: A. baumannii isolates (n per peptide in table); for MIC: Acinetobacter baumannii ATCC BAA 747, CAA supplemented with human serum
# S. maltophilia = test: MIC against S. maltophilia isolates; type: cell-based, Stenotrophomonas maltophilia; conditions: S. maltophilia isolates (n per peptide in table)
# Method: as §1
# In addition to the results discussed above in Example 3, further testing was conducted on several Chp peptides. MIC values were determined against different species, including P. aeruginosa, K. pneumoniae, A. baumannii, E. cloacae, E. coli, and S. maltophilia, and the results are presented below in Tables 40-45, wherein n=number of isolates tested for each species and MIC is measured as μg/mL.
# [2] = test system: carbapenem-resistant bacterial strains; test: organism not typed; type: cell-based
# Source text: as §1
# [3] = Stability assessment in 100% CAA; type: in vitro ADME; set-up: unit not given beside the values
# Method: Stability was assessed after incubation in 100% human serum at 37° C. after 10 minutes, 1 hour, and 2 hours.
# Stability assessment was further conducted in 100% CAA and rabbit serum using the same methodology discussed above.
# M. smegmatis = test: 45 hr MIC against M. smegmatis (NTM), Mueller Hinton broth; type: cell-based, Mycobacterium smegmatis
# M. fortuitum = test: 45 hr MIC against M. fortuitum (NTM); type: cell-based, Mycobacterium fortuitum; conditions: M. fortuitum subsp. Fortuitum da Costa Cruz. ATCC 6841
# M. avium = test: 45 hr MIC against M. avium (NTM); type: cell-based, Mycobacterium avium; conditions: M. avium Chester ATCC 700898
# M. intracellulare = test: 45 hr MIC against M. intracellulare (NTM); type: cell-based, Mycobacterium intracellulare; conditions: M. intracellulare (Cuttino and McCabe) Runyon ATCC 13950
# [4] = test system: M. kansasii Hauduroy ATCC 12478; test: 45 hr MIC against M. kansasii (NTM), Mueller Hinton broth; type: cell-based, Mycobacterium kansasii
# [5] = test system: Mycobacterium tuberculosis strains; conditions: Mycobacterium tuberculosis (Zopf) Lehmann and Neumann ATCC 35817
# Method: MIC values for various Chp peptides were determined using the CLSI method for broth microdilution in 96-well microtiter format.
# Next, MIC values for various Chp peptides were determined using the CLSI method above for broth microdilution in 96-well microtiter format for two different Mycobacterium tuberculosis strains. The MIC was determined as explained above for the NTM strains.
# M. scrofulaceum = test: 45 hr MIC against M. scrofulaceum (NTM); type: cell-based, Mycobacterium scrofulaceum; conditions: M. scrofulaceum Prissick and Masson ATCC 19981
# [6] = E. cloacae isolates (n per peptide in table)
# [7] = E. coli isolates (n per peptide in table)
# [8] = carbapenem-resistant isolate PA19
# [9] = carbapenem-resistant isolate PA20
# [10] = carbapenem-resistant isolate PA21
# [11] = carbapenem-resistant isolate PA22
# [12] = carbapenem-resistant isolate PA23
# [13] = carbapenem-resistant isolate PA24
# [14] = carbapenem-resistant isolate WLC-452
molecule,measurement,setting,value
NC[C@H]1O[C@H](O[C@H]2[C@H](O)[C@@H](O[C@H]3O[C@H](CO)[C@@H](O)[C@H](N)[C@H]3O)[C@H](N)C[C@@H]2N)[C@H](N)C[C@@H]1O [Tobra],Passage MIC Passage #1 (Untreated),"P. aeruginosa (CFS 1292); Passage #1, MIC of agent on untreated culture",0.125 µg/mL
same,Passage MIC Passage #1,"P. aeruginosa (CFS 1292); Passage #1, colonies from spot dilution, duplicates (1),(2)",0.5 µg/mL
same,Passage MIC Passage #2 (Untreated),"P. aeruginosa (CFS 1292); Passage #2, MIC of agent on untreated culture",0.125 µg/mL
same,Passage MIC Passage #2,"P. aeruginosa (CFS 1292); Passage #2, colonies from spot dilution, duplicates (1),(2)",0.5 µg/mL
same,Passage MIC Passage #3 (Untreated),"P. aeruginosa (CFS 1292); Passage #3, MIC of agent on untreated culture",0.125 µg/mL
same,Passage MIC Passage #3,"P. aeruginosa (CFS 1292); Passage #3, colonies from spot dilution, duplicates (1),(2)",0.5 µg/mL
same,Passage MIC Passage #4 (Untreated),"P. aeruginosa (CFS 1292); Passage #4, MIC of agent on untreated culture",0.125 µg/mL
same,Passage MIC Passage #4,"P. aeruginosa (CFS 1292); Passage #4, colonies from spot dilution, duplicates (1),(2)",0.5 µg/mL
same,Passage MIC Passage #5 (Untreated),"P. aeruginosa (CFS 1292); Passage #5, MIC of agent on untreated culture",0.125 µg/mL
same,Passage MIC Passage #5,"P. aeruginosa (CFS 1292); Passage #5, colonies from spot dilution, duplicates (1),(2)",1 µg/mL
MARRKKMKGKRDKRVFKQTANKTKAINISPKNMRGGTRL [Unp3],MIC (μg/mL) against CFS-1292 in 100% CAA (1st run/2nd run),[1],8 µg/mL
same,MIC50,Pseudomonas aeruginosa,>8 µg/mL
same,MIC100,Pseudomonas aeruginosa,>8 µg/mL
same,MIC50,Enterobacter cloacae; [6],>8 µg/mL
same,MIC100,Enterobacter cloacae; [6],>8 µg/mL
same,MIC Range,Enterobacter cloacae; [6],>8 µg/mL
same,MIC,Enterobacter cloacae,8 µg/mL
same,MIC50,Escherichia coli; [7],>8 µg/mL
same,MIC100,Escherichia coli; [7],>8 µg/mL
same,MIC,Escherichia coli,0.5 µg/mL
same,MIC50,Klebsiella pneumoniae,>8 µg/mL
same,MIC100,Klebsiella pneumoniae,>8 µg/mL
same,MIC Range,Klebsiella pneumoniae,>8 µg/mL
same,MIC,Klebsiella pneumoniae,4 µg/mL
same,MIC50,Acinetobacter baumannii,>8 µg/mL
same,MIC100,Acinetobacter baumannii,>8 µg/mL
same,MIC,Acinetobacter baumannii,2 µg/mL
same,MIC50,S. maltophilia,>8 µg/mL
same,MIC100,S. maltophilia,>8 µg/mL
same,MIC Range,S. maltophilia,>8 µg/mL
same,MIC,[2]; [8],8 µg/mL
same,MIC,[2]; [9],>8 µg/mL
same,MIC,[2]; [10],>8 µg/mL
same,MIC,[2]; [11],>8 µg/mL
same,MIC,[2]; [12],>8 µg/mL
same,MIC,[2]; [13],>8 µg/mL
same,MIC,[2]; [14],>8 µg/mL
same,MIC (100% CAA),[3],4
same,45 hr MIC,"M. smegmatis; M. smegmatis MC^2 155, Run #1",32 µg/mL
MKLTKSDIAYREALGLSTTDPLPAEIGMVTRRANRLKRPRKTARFR [Myo1],MIC (μg/mL) against CFS-1292 in 100% CAA (1st run/2nd run),[1],>64 µg/mL
same,45 hr MIC,"M. smegmatis; M. smegmatis MC^2 155, Run #1",>64 µg/mL
same,45 hr MIC,"M. smegmatis; M. smegmatis MC^2 155, Run #2",>64 µg/mL
same,45 hr MIC,M. fortuitum,>64 µg/mL
same,45 hr MIC,M. avium,8 µg/mL
same,45 hr MIC,M. intracellulare,>64 µg/mL
same,45 hr MIC,[4],>64 µg/mL
same,MIC,[5],32 µg/mL
MKPLKRKPVQKARSAAKFRRNVSTVKAANMAVKPMRGGWRF [Fen7875],MIC (μg/mL) against CFS-1292 in 100% CAA (1st run/2nd run),[1],2 µg/mL
same,MIC (μg/mL) against CFS-1292 in CAA + […] human serum,[1],2 µg/mL
same,MIC (100% CAA),[3],4
same,45 hr MIC,"M. smegmatis; M. smegmatis MC^2 155, Run #1",4 µg/mL
same,45 hr MIC,"M. smegmatis; M. smegmatis MC^2 155, Run #2",16 µg/mL
same,45 hr MIC,M. fortuitum,8 µg/mL
same,45 hr MIC,M. avium,2 µg/mL
same,45 hr MIC,M. scrofulaceum,16 µg/mL
same,45 hr MIC,M. intracellulare,8 µg/mL
same,45 hr MIC,[4],32 µg/mL
MLTVWSDTPTIKRRKDMYRKRMSRKKSKKVFAKTAMKVNKRNHVKPMRGGYRI [Gkh3],MIC (μg/mL) against CFS-1292 in 100% CAA (1st run/2nd run),[1],0.5 µg/mL
same,MIC (μg/mL) against CFS-1292 in CAA + […] human serum,[1],1 µg/mL
same,MIC50,Pseudomonas aeruginosa,8 µg/mL
same,MIC100,Pseudomonas aeruginosa,>8 µg/mL
same,MIC50,Enterobacter cloacae; [6],4 µg/mL
same,MIC100,Enterobacter cloacae; [6],4 µg/mL
same,MIC,Enterobacter cloacae,4 µg/mL
same,MIC50,Escherichia coli; [7],1 µg/mL
same,MIC100,Escherichia coli; [7],4 µg/mL
same,MIC Range,Escherichia coli; [7],0.5 to 8 µg/mL
same,MIC,Escherichia coli,2 µg/mL
same,MIC50,Klebsiella pneumoniae,>8 µg/mL
same,MIC100,Klebsiella pneumoniae,>8 µg/mL
same,MIC,Klebsiella pneumoniae,4 µg/mL
same,MIC50,Acinetobacter baumannii,0.5 µg/mL
same,MIC100,Acinetobacter baumannii,1 µg/mL
same,MIC Range,Acinetobacter baumannii,0.25 to 1 µg/mL
same,MIC,Acinetobacter baumannii,4 µg/mL
same,MIC50,S. maltophilia,8 µg/mL
same,MIC100,S. maltophilia,>8 µg/mL
same,MIC,[2]; [8],2 µg/mL
same,MIC,[2]; [9],>8 µg/mL
same,MIC,[2]; [10],>8 µg/mL
same,MIC,[2]; [11],>8 µg/mL
same,MIC,[2]; [12],8 µg/mL
same,MIC,[2]; [13],8 µg/mL
same,MIC,[2]; [14],2 µg/mL
same,MIC (100% CAA),[3],0.5
same,45 hr MIC,"M. smegmatis; M. smegmatis MC^2 155, Run #1",>128 µg/mL
MMKYRKKMSAKSSRKQFTKGAMKVKGKNFTKPMRGGIRL [Unp5],MIC (μg/mL) against CFS-1292 in 100% CAA (1st run/2nd run),[1],2 µg/mL
same,MIC (μg/mL) against CFS-1292 in CAA + […] human serum,[1],0.5 µg/mL
same,MIC50,Pseudomonas aeruginosa,>8 µg/mL
same,MIC100,Pseudomonas aeruginosa,>8 µg/mL
same,MIC,Enterobacter cloacae,4 µg/mL
same,MIC,Escherichia coli,1 µg/mL
same,MIC50,Klebsiella pneumoniae,>8 µg/mL
same,MIC100,Klebsiella pneumoniae,>8 µg/mL
same,MIC Range,Klebsiella pneumoniae,>8 µg/mL
same,MIC,Klebsiella pneumoniae,4 µg/mL
same,MIC50,Acinetobacter baumannii,4 µg/mL
same,MIC100,Acinetobacter baumannii,8 µg/mL
same,MIC Range,Acinetobacter baumannii,1 to 8 µg/mL
same,MIC,Acinetobacter baumannii,8 µg/mL
same,MIC50,S. maltophilia,>8 µg/mL
same,MIC100,S. maltophilia,>8 µg/mL
same,MIC Range,S. maltophilia,>8 µg/mL
same,MIC,[2]; [8],8 µg/mL
same,MIC,[2]; [9],>8 µg/mL
same,MIC,[2]; [10],>8 µg/mL
same,MIC,[2]; [11],>8 µg/mL
same,MIC,[2]; [12],>8 µg/mL
same,MIC,[2]; [13],>8 µg/mL
same,MIC,[2]; [14],>8 µg/mL
same,MIC (100% CAA),[3],2
same,45 hr MIC,"M. smegmatis; M. smegmatis MC^2 155, Run #1",8 µg/mL
MRKRMSKRVDKKVFRRTAASAKKINIDPKIYRGGIRL [Osp1],MIC (μg/mL) against CFS-1292 in 100% CAA (1st run/2nd run),[1],16 µg/mL
same,MIC50,Pseudomonas aeruginosa,>8 µg/mL
same,MIC100,Pseudomonas aeruginosa,>8 µg/mL
same,MIC Range,Pseudomonas aeruginosa,>8 µg/mL
same,MIC,Enterobacter cloacae,32 µg/mL
same,MIC,Escherichia coli,0.5 µg/mL
same,MIC50,Klebsiella pneumoniae,>8 µg/mL
same,MIC100,Klebsiella pneumoniae,>8 µg/mL
same,MIC Range,Klebsiella pneumoniae,>8 µg/mL
same,MIC,Klebsiella pneumoniae,0.125 µg/mL
same,MIC50,Acinetobacter baumannii,8 µg/mL
same,MIC100,Acinetobacter baumannii,8 µg/mL
same,MIC Range,Acinetobacter baumannii,2 to 8 µg/mL
same,MIC,Acinetobacter baumannii,32 µg/mL
same,MIC50,S. maltophilia,>8 µg/mL
same,MIC100,S. maltophilia,>8 µg/mL
same,MIC Range,S. maltophilia,>8 µg/mL
same,MIC,[2]; [8],>8 µg/mL
same,MIC,[2]; [9],>8 µg/mL
same,MIC,[2]; [10],>8 µg/mL
same,MIC,[2]; [11],>8 µg/mL
same,MIC,[2]; [12],>8 µg/mL
same,MIC,[2]; [13],>8 µg/mL
same,MIC,[2]; [14],8 µg/mL
same,MIC (100% CAA),[3],4
same,45 hr MIC,"M. smegmatis; M. smegmatis MC^2 155, Run #1",32 µg/mL
